Assay results published in US11129801B2 (SigmaThera SAS, priority 2016, dated 2021).

Assays:
[1] = test system: Aβ25-35 mouse model of Alzheimer's disease; experiment: Step-through passive avoidance test, Aβ25-35 mouse model; assay type: in vivo
Description: (§1) The compound efficacy was evaluated 7 days after the peptide administration on the attenuation of the Aβ25-35-induced learning deficits (spatial working memory using the spontaneous alternation in the Y-maze test, and contextual long-term memory using the passive avoidance test).
(§2) The mice were tested 7 days post injection or at the indicated time points.
(§3) In Experiment 2, twelve mice per experimental group were administered Sc.Aβ or Aβ25-35-amyloid peptide on day 0 by i.c.v. injection. […] Animals were tested at day 7 and later.
Each of these doses was, by itself, unable to produce any protective effect. The synergy/additivity/antagonism was evaluated by calculating the combination index. […] Animals were then tested at day 7 and later.
(§4) For each of Experiments 1-4, on day 7, all animals were tested for the spontaneous alternation performance in the Y-maze test, an index of spatial working memory. On day 8 and 9, the contextual long-term memory of the animals was assessed using the step-through type passive avoidance procedure. On day 9, immediately after the retention session, animals were sacrificed by decapitation and the hippocampus and cortex dissected out. Lipid peroxidation was analyzed in the hippocampus, whereas neuroinflammation, apoptosis, amyloid burden and hyperphosphorylation of tau protein were analyzed in cortex.
(§5) The homogeneous oligomeric preparation of Aβ25-35 peptide was performed according to the AMYLGEN's own procedure. Each mouse was anesthetized with isoflurane 2.5% and injected i.c.v. with Aβ25-35 peptide (9 nmol/mouse) or Sc.Aβ peptide (9 nmol/mouse), in a final volume of 3 μl/mouse, according to the previously described method (Maurice T, et al. (1996). Brain Res. 706(2): 181-193, Maurice T, et al. (1998) Neuroscience 83(2): 413-428, Meunier J, et al. (2006) British J. Pharmacol. 149(8): 998-1012, Villard V, et al. (2009) Neuropsychopharmacology 34(6): 1552-1566, Villard V, et al. (2011) J. Pharmacol. Sci. 115(3): 279-292).
Animals: Male Swiss mice, 6 weeks old and weighing 30-35 g, from JANVIER (Saint Berthevin, France), were kept for housing and experiments took place within the animal facility building of the University of Montpellier 2 (CECEMA, Office of Veterinary Services agreement #B-34-172-23). Animals were housed in groups with access to food and water ad libitum, except during behavioral experiments. They were kept in a temperature and humidity controlled animal facility on a 12 h/12 h light/dark cycle (lights off at 07:00 pm). […]
Passive avoidance test: The passive avoidance task was used to evaluate learning and memory in mice treated with igmesine. […] The step-through latency, that is, the latency spent to enter the dark compartment, and the number of vocalizations was recorded. […]

sigma-1R = conditions: read-out: IC50 / affinity for sigma-1R; cited from earlier work
[2] = test system: Aβ25-35 mouse model of Alzheimer's disease; experiment: Spontaneous alternation in the Y-maze, Aβ25-35 mouse model; assay type: in vivo
Description: as §1, §2, §3
The synergy/additivity/antagonism was evaluated by calculating the combination index. […] Animals were then tested at day 7 and later.
Animals were tested at day 7 and later.
as §4, §5
Animals: Male Swiss mice, 6 weeks old and weighing 30-35 g, from JANVIER (Saint Berthevin, France), were kept for housing and experiments took place within the animal facility building of the University of Montpellier 2 (CECEMA, Office of Veterinary Services agreement #B-34-172-23). Animals were housed in groups with access to food and water ad libitum, except during behavioral experiments. They were kept in a temperature and humidity controlled animal facility on a 12 h/12 h light/dark cycle (lights off at 07:00 pm). Mice were numbered by marking their tail using permanent markers. All animal procedures were conducted in strict adherence to the European Union directive of Sep. 22, 2010 (2010/63/UE). Diagnostic summary reports of JANVIER were annexed to the study report.
Spontaneous alternation performance: Immediate working memory performance was assessed by recording spontaneous alternation behavior during a single session in a Y-maze as described previously (Itoh J, et al. (1993) Eur J Pharmacol 236(3): 341-345; Hiramatsu M and Inoue K (1999) Br J Pharmacol 127(3): 655-660). The Y-maze is made of grey polyvinylchloride. Each arm of the Y-maze was 40 cm long, 3 cm wide, and 13 cm high at the bottom, 10 cm wide at the top, and converging at an equal angle. Each mouse was placed at the end of one arm and allowed to move freely through the maze during an 8 min session. The series of arm entries, including possible returns into the same arm, was checked visually. An alternation was defined as entries into all three arms on consecutive occasions. The number of maximum alternations is therefore the total number of arm entries minus two and the percentage of alternation was calculated as (actual alternations/maximum alternations)×100. Parameters included the percentage of alternation (memory index) and total number of arm entries (exploration index).

[3] = Experiment 1, pre-treatment, 0.1, 0.3, 1 mg/kg i.p.
[4] = Experiment 2, post-treatment day 1 to day 6

CCC(C/C=C/c1ccccc1)(c1ccccc1)N(C)CC1CC1 (single isomer, unassigned; (+)) [igmesine, (+)-(E)-N-(cyclopropylmethyl)-N-methyl-3,6-diphenylhex-5-en-3-amine]
prevention of passive avoidance deficits, escape latency [1, 3]: at the highest dose | prevention of passive avoidance deficits, step-through latency [1, 3]: significant prevention at the two highest dose tested | prevention of passive avoidance deficits, escape latency [1, 4]: significant prevention at the highest dose tested | prevention of passive avoidance deficits, step-through latency [1, 4]: significant prevention at the highest dose tested | IC50 (sigma-1R): 39 ± 8 nM | prevention of Aβ25-35-induced spontaneous alternation deficits ([2]; Experiment 1, i.p. 20 min before Aβ25-35, 0.1, 0.3, 1 mg/kg): dose-dependently prevented | prevention of Aβ25-35-induced spontaneous alternation deficits ([2]; Experiment 2, post-treatment i.p. day 1 to day 6): prevented the Aβ25-35-induced deficits at the highest doses tested | highest sub-active dose, spontaneous alternation ([2]; Experiment 3, i.p.): 0.1 mg/kg
